Like-named read-outs stand apart in the source and are kept apart here.

The target of one assay is EGFR wildtype (Homo sapiens, UniProt P00533). Nature of the assay: Biochemical EGFR kinase assay (Lance Ultra TR-FRET), wildtype. An outline of the steps: (§1)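 Enzyme reactions lasted 1 hour at room temperature with test compounds between 0.003 and 10 μM, followed by 10 mM EDTA quench.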
In the next assay the target is EGFR del19/C797S (Homo sapiens, UniProt P00533, C797S/DEL746-750). Nature of the assay: Biochemical EGFR kinase assay (Lance Ultra TR-FRET), double mutant del19/C797S. In a few lines: as §1
A general note: TR-FRET usually uses a lanthanide donor and a delayed reading to cut background.

The next assay concerns the target EGFR L858R/C797S (Homo sapiens, UniProt P00533, C797S/L858R). Put plainly: Biochemical EGFR kinase assay (Lance Ultra TR-FRET), double mutant L858R/C797S. In a few lines:
as §1

For a further assay, the target named is EGFR L858R/T790M/C797S (Homo sapiens, UniProt P00533, C797S/L858R/T790M). Nature of the assay: Biochemical EGFR kinase assay (Lance Ultra TR-FRET), triple mutant L858R/T790M/C797S. In a few lines:
as §1

Another assay concerns the target EGFR del19/T790M/C797S (Homo sapiens, UniProt P00533, C797S/DEL746-750/T790M). Nature of the assay: Biochemical EGFR kinase assay (Lance Ultra TR-FRET), triple mutant del19/T790M/C797S. In a few lines:
as §1

Setting [1] is: ATP at Km, read-out: IC50 WT, Km ATP.
The mark [2] stands for this setting: ATP at Km, read-out: IC50 del19/C797S, Km ATP.
The mark [3] stands for this setting: ATP at Km, read-out: IC50 L858R/C797S, Km ATP.
The mark [4] stands for this setting: ATP at Km, read-out: IC50 L858R/T790M/C797S, Km ATP.
The mark [5] stands for this setting: ATP at Km, read-out: IC50 del19/T790M/C797S, Km ATP.
The mark [6] stands for this setting: IC50 L858R/T790M/C797S, 100 μM ATP.
[7] abbreviates: IC50 del19/T790M/C797S, 100 μM ATP.

Sequence of EGFR del19/T790M/C797S (P00533 with tags, fused parts or gaps DEL746-750/T790M/C797S): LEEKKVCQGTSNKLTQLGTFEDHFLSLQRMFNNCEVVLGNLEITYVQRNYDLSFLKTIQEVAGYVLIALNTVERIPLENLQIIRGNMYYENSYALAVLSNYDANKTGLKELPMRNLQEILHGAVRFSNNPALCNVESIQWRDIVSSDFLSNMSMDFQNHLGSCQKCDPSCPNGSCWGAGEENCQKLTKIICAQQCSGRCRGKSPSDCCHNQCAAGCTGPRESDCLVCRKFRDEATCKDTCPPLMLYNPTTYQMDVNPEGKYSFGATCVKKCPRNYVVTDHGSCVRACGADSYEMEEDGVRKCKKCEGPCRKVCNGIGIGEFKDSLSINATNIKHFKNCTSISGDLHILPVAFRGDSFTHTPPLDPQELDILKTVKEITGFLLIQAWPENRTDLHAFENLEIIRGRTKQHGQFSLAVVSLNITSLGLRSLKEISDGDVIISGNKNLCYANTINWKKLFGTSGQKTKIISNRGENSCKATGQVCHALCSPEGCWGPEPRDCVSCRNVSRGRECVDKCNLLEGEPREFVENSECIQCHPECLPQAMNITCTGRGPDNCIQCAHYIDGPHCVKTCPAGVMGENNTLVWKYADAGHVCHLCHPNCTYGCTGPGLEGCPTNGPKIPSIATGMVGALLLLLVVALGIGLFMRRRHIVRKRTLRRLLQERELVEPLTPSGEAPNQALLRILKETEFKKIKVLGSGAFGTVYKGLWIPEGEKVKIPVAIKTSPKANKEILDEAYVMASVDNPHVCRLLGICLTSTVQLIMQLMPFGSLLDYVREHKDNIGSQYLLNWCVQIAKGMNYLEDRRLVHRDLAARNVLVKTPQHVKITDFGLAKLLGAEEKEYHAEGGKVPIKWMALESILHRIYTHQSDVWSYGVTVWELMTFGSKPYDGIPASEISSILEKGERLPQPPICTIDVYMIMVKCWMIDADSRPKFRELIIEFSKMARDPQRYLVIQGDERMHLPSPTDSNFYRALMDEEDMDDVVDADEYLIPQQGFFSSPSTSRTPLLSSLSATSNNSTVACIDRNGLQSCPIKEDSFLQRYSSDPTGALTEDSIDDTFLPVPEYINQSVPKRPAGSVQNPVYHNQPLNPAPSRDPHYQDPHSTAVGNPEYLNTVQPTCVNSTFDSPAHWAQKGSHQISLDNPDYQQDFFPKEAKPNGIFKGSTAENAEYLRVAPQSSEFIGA
Sequence of EGFR wildtype (P00533 25-1210): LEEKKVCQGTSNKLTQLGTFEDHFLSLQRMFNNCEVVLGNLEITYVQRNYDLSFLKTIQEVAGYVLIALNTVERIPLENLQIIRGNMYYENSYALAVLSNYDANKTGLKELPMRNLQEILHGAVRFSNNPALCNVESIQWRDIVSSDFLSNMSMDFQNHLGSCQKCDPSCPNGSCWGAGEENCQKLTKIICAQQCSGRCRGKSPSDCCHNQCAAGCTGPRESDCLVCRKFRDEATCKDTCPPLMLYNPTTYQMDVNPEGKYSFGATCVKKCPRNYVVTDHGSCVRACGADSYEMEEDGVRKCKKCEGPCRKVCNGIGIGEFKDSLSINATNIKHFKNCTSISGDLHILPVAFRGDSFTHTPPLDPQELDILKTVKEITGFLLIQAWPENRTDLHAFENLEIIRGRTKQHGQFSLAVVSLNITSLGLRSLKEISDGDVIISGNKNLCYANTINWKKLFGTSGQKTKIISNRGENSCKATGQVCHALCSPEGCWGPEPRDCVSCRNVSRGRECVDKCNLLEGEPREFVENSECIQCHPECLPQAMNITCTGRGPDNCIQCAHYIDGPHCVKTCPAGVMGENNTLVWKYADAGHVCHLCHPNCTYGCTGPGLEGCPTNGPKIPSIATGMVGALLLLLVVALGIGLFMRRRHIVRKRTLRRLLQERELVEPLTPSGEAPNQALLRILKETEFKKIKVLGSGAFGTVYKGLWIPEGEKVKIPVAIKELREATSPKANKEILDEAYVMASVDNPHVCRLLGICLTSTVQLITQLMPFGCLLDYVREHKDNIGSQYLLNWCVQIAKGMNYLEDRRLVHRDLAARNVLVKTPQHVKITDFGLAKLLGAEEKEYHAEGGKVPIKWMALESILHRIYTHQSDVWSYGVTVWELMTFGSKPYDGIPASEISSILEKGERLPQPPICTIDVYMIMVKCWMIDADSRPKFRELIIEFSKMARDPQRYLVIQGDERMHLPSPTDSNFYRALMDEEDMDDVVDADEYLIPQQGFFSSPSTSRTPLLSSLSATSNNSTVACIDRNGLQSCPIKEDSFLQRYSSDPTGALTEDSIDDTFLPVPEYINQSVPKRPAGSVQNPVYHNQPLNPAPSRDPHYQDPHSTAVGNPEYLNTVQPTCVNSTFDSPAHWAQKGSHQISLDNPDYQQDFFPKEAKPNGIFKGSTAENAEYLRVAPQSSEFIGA
Sequence of EGFR L858R/T790M/C797S (P00533 25-1210 T790M/C797S/L858R): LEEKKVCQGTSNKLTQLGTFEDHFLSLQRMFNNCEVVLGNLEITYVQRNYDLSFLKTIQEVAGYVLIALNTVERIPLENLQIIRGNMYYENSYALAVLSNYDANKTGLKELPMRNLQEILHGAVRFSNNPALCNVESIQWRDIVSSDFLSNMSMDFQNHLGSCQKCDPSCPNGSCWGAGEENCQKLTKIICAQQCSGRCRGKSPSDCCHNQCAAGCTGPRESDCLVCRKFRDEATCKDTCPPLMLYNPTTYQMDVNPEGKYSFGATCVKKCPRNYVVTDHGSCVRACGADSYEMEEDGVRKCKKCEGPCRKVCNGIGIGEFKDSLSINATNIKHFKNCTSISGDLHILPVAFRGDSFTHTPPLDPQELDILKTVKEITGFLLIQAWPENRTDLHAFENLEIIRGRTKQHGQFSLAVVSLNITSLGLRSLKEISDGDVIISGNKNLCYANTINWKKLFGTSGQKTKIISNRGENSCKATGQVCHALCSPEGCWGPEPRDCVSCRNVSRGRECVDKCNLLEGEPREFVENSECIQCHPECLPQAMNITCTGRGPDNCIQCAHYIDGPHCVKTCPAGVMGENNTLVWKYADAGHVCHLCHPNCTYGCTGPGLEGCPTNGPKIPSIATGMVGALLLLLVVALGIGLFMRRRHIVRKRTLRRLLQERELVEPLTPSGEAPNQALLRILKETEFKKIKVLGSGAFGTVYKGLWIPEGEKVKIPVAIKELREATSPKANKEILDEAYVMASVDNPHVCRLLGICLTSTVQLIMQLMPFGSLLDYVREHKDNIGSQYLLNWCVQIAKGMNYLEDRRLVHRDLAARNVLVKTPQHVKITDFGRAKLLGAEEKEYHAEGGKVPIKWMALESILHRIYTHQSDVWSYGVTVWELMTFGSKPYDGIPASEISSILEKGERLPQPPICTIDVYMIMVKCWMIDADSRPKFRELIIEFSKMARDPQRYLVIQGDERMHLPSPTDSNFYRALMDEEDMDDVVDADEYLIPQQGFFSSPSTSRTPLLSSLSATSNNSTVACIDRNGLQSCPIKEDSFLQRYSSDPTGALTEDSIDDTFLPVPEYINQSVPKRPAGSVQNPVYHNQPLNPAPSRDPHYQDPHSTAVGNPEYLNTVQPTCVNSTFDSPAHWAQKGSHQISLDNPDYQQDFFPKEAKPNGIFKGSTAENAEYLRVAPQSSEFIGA
Sequence of EGFR del19/C797S (P00533 with tags, fused parts or gaps DEL746-750/C797S): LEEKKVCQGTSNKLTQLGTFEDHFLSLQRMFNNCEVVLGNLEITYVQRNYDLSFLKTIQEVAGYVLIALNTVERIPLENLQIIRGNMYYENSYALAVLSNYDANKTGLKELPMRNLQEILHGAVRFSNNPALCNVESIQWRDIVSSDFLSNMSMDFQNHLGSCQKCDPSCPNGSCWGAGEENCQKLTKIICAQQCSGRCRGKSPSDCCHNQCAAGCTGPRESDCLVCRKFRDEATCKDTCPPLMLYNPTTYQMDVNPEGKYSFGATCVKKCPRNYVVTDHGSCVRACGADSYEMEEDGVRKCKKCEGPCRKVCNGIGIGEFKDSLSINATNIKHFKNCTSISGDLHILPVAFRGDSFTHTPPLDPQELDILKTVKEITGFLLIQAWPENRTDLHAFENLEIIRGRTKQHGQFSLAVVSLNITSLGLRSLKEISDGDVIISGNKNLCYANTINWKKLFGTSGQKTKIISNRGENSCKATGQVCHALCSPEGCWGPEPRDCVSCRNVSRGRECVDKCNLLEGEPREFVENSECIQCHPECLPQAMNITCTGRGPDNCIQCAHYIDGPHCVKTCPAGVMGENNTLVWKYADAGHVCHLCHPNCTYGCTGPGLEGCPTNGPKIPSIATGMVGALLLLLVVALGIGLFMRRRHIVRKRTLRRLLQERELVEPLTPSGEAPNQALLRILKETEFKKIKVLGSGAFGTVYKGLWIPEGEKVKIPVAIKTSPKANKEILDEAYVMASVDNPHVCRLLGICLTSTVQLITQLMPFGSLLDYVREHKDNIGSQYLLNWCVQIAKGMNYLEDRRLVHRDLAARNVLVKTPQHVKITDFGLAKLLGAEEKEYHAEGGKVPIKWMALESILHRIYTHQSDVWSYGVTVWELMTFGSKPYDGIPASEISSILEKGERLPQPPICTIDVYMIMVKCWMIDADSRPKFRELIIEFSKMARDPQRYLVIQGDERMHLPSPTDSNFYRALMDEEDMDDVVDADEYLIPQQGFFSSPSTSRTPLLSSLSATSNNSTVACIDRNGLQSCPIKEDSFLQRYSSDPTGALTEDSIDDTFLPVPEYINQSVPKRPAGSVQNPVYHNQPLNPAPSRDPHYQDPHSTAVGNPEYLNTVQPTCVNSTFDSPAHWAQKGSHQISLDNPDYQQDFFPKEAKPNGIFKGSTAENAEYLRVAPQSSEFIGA

For `O=S(=O)(C1CC1)n1cc(-c2nccc(Nc3cc(NC4CCC(F)(F)CC4)c(-c4ccc(N5CCC(F)(F)CC5)nn4)cn3)n2)cn1` [Example 268, N^2-(2-(1-(Cyclopropylsulfonyl)-1H-pyrazol-4-yl)pyrimidin-4-yl)-N^4-(4,4-difluorocyclohexyl)-5-(6-(4,4-difluoropiperidin-1-yl)pyridazin-3-yl)pyridine-2,4-diamine], the IC50 was determined as 4770 nM at EGFR wildtype (setting [1]); 762 nM at EGFR del19/C797S (setting [2]); 1220 nM on EGFR L858R/C797S (setting [3]); 22.4 nM on EGFR L858R/T790M/C797S (setting [4]); 28.9 nM at EGFR del19/T790M/C797S (setting [5]).

Take `CN(C)CC1CCC(Nc2cc(Nc3ccnc(-c4cnn(S(=O)(=O)C5CC5)c4)n3)ncc2-c2ccc(C(C)(O)C(F)(F)F)cn2)CC1` (centres unmarked) [Example 234, 2-(6′-((2-(1-(Cyclopropylsulfonyl)-1H-pyrazol-4-yl)pyrimidin-4-yl)amino)-4′-(((1s,4s)-4-((dimethylamino)methyl)cyclohexyl)amino)-[2,3′-bipyridin]-5-yl)-1,1,1-trifluoropropan-2-ol]: the IC50 at EGFR wildtype (setting [1]) was 0.7 nM; against EGFR wildtype (IC50 WT, 100 μM ATP), 122 nM; on EGFR del19/C797S (setting [2]), 0.2 nM; on EGFR del19/C797S (IC50 del19/C797S, 100 μM ATP) it was 0.5 nM; at EGFR L858R/C797S (setting [3]) it was 0.3 nM; at EGFR L858R/C797S (IC50 L858R/C797S, 100 μM ATP), 0.7 nM. The IC50 was 0.2 nM on EGFR L858R/T790M/C797S (setting [4]), 0.2 nM against EGFR L858R/T790M/C797S (setting [6]), 0.5 nM on EGFR del19/T790M/C797S (setting [5]) and 0.3 nM on EGFR del19/T790M/C797S (setting [7]).

On to `C[C@]1(O)CC[C@@H](Nc2cc(Nc3ccnc(-c4cnn(S(=O)(=O)C5CC5)c4)n3)ncc2-c2cc(NCCC(F)(F)F)ccn2)CC1` [Example 277, (1s,4s)-4-((6′-((2-(1-(Cyclopropylsulfonyl)-1H-pyrazol-4-yl)pyrimidin-4-yl)amino)-4-((3,3,3-trifluoropropyl)amino)-[2,3′-bipyridin]-4′-yl)amino)-1-methylcyclohexan-1-ol], for which the IC50 at EGFR wildtype (setting [1]) was 9.8 nM; against EGFR wildtype (IC50 WT, 100 μM ATP), more than 10000 nM; at EGFR del19/C797S (setting [2]), 0.9 nM; against EGFR del19/C797S (IC50 del19/C797S, 100 μM ATP) it was 3.9 nM; on EGFR L858R/C797S (setting [3]), 2.2 nM; against EGFR L858R/C797S (IC50 L858R/C797S, 100 μM ATP), 11.2 nM. Moreover, the IC50 is 1.6 nM at EGFR L858R/T790M/C797S (setting [4]), 4.4 nM at EGFR del19/T790M/C797S (setting [5]) and 4.7 nM at EGFR del19/T790M/C797S (setting [7]).

Take `CN(C)C[C@H]1CC[C@@H](Nc2cc(Nc3ccnc(-c4cnn(S(=O)(=O)C5CC5)c4)n3)ncc2-c2cccc(F)n2)CC1` [Example 274, N^6′-(2-(1-(Cyclopropylsulfonyl)-1H-pyrazol-4-yl)pyrimidin-4-yl)-N^4′-((1s,4s)-4-((dimethylamino)methyl)cyclohexyl)-6-fluoro-[2,3′-bipyridine]-4′,6′-diamine]: the IC50 on EGFR wildtype (setting [1]) was determined as 0.5 nM; against EGFR wildtype (IC50 WT, 100 μM ATP), 108 nM; at EGFR del19/C797S (setting [2]) it was 0.1 nM; on EGFR del19/C797S (IC50 del19/C797S, 100 μM ATP), 0.1 nM; on EGFR L858R/C797S (setting [3]), 0.1 nM; on EGFR L858R/C797S (IC50 L858R/C797S, 100 μM ATP) it was 0.4 nM. Further, the IC50 on EGFR L858R/T790M/C797S (setting [4]) came to 0.03 nM; against EGFR L858R/T790M/C797S (setting [6]), 0.1 nM; on EGFR del19/T790M/C797S (setting [5]) it was 0.02 nM; on EGFR del19/T790M/C797S (setting [7]), 0.1 nM.

For `CN(C)CCOc1ccc(-c2cnc(Nc3ccnc(-c4cnn(S(=O)(=O)C5CC5)c4)n3)cc2N[C@H]2CC[C@@H](C(C)(C)O)CC2)nc1` [Example 210, 2-((1s,4s)-4-((6′-((2-(1-(Cyclopropylsulfonyl)-1H-pyrazol-4-yl)pyrimidin-4-yl)amino)-5-(2-(dimethylamino)ethoxy)-[2,3′-bipyridin]-4′-yl)amino)cyclohexyl)propan-2-ol], the IC50 on EGFR wildtype (setting [1]) is 0.6 nM; against EGFR wildtype (IC50 WT, 100 μM ATP) it was 426 nM; on EGFR del19/C797S (setting [2]) it was 0.3 nM; against EGFR del19/C797S (IC50 del19/C797S, 100 μM ATP), 0.5 nM; on EGFR L858R/C797S (setting [3]) it was 0.1 nM; against EGFR L858R/C797S (IC50 L858R/C797S, 100 μM ATP), 1.8 nM. The IC50 at EGFR L858R/T790M/C797S (setting [4]) amounted to 0.2 nM; against EGFR L858R/T790M/C797S (setting [6]) it was 0.3 nM; at EGFR del19/T790M/C797S (setting [5]) it was 0.3 nM; on EGFR del19/T790M/C797S (setting [7]), 0.4 nM.

For the origin of these results see patent US12258328B2, “6-membered heteroaryl-containing aminopyridine compounds as EGFR inhibitors” (YUHAN CORPORATION, priority 2021, dated 2025).
